# Experimental data as given in the NIST ThermoML archive (doi:10.1016/j.tca.2016.11.011).
# “And” between values parts separate entries of the source, which are not always exact repeats. Equal values may be shown once. Numbers after ± are expanded uncertainties.
# Conditions: DSC
row,Structure (SMILES),Glass transition temperature
1,COC(=O)C1=C(C)NC(C)=C(C(=O)OC)C1c1ccccc1[N+](=O)[O-],44.5 ± 1 °C and 42.2 ± 1 °C
2,CC(=O)Nc1ccc(O)cc1 [N-acetyl-p-aminophenol],24 ± 1 °C and 21.7 ± 1 °C
3,"O[C@@H]1[C@@H](O)[C@@H]2OC[C@@H](O2)[C@H]1O [1,6-anhydro-β-D-glucopyranose]",-24.7 ± 1 °C and -26.5 ± 1 °C
